{
  "source": "paper PMC3303751",
  "about": "“Development of Tyrosine-Based Radiotracer ^99mTc-N4-Tyrosine for Breast Cancer Imaging” (Journal of Biomedicine and Biotechnology, 2012)",
  "key": {"[1]": {"assay": "Partition coefficient (1-octanol/sterile water)", "type": "physicochemical", "conditions": "room temperature", "method": "To determine the lipophilicity, 20 μL of ^99mTc-N4-Tyrosine was added into an equal volume mixture of 1-octanol and sterile water in a centrifuge tube. The mixture was vortexed at room temperature for 1 minute and then centrifuged at 5,000 rpm for 5 minutes to allow phase separation. From each phase, 0.1 mL of the aliquot was taken out, and the radioactivity was measured by gamma counter (Cobra Quantum, Packard, MN, USA). The measurement was repeated 3 times, and care was taken to avoid cross-contamination between the phases. The partition coefficient value, expressed as log P, was calculated using the following equation:\n(1) Log P= log(radioactivity in 1‐octanol layer/radioactivity in sterile water layer)"}, "[2]": {"system": "rat breast tumor cell line 13762", "assay": "In vitro cellular uptake", "type": "cell-based", "conditions": "13762 cells", "method": "Rat breast tumor cell line 13762 (American Type Culture Collection, Rockville, MD, USA) was used for both in vitro studies and to create the animal model for in vivo evaluation. All cells were maintained in Dulbecco's modified Eagle's medium and nutrient mixture F-12 Ham (DMEM/F12; GIBCO, Grand Island, NY) at 37°C in a humidified atmosphere containing 5% CO2.\nFor in vitro cellular uptake analysis, cells were plated onto 6-well tissue culture plates (2 × 10^5 cells/well) 48 hours before adding the radiotracers and incubated with ^99mTc-N4-Tyrosine (0.05 mg/well, 8 μCi/well), ^99mTc-N4 (0.025 mg/well, 8 μCi/well), or ^18F-FDG (8 μCi/well) for 0–4 hours. After incubation, cells were washed with ice-cold phosphate-buffered solution twice and detached using a treatment of 0.5 mL of trypsin for 5 minutes. Cells were then collected, and the radioactivity of the cells was measured in triplicate with a gamma counter (Cobra Quantum). Radioactivity was expressed as mean ± standard deviation (SD) percent of cellular uptake (%Uptake)."}, "[3]": {"assay": "Blood clearance in normal rats", "type": "in vivo", "conditions": "normal female Fischer 344 rats, i.v. 30 μCi", "method": "All animal work was carried out in the Small Animal Imaging Facility at MD Anderson under a protocol approved by the Institutional Animal Care and Use Committee. For blood clearance analysis, 3 normal female Fischer 344 rats (150 ± 25 g; Harlan Sprague-Dawley, Indianapolis, IN, USA) were intravenously injected with 30 μCi of ^99mTc-N4-Tyrosine. Blood samples (n = 3/rat) were drawn from each rat through the lateral tail vein by microliter pipette (10 μL) at several time points between 5 minutes and 24 hours after injection. The blood samples were measured for radioactivity by gamma counter, and the radioactivity was expressed as a percentage of the injected dose per gram of blood (%ID/g)."}, "[4]": {"assay": "Tissue distribution in normal rats", "type": "in vivo, Fischer 344 rats", "conditions": "for tissue distribution, Blood / tissue distribution, Bone and joint / tissue distribution, Brain / tissue distribution, Heart / tissue distribution, Intestine / tissue distribution, Kidney / tissue distribution, Liver / tissue distribution, Lung / tissue distribution, Muscle / tissue distribution, Pancreas / tissue distribution, Spleen / tissue distribution, Stomach / tissue distribution, Thyroid: i.v.", "method": "Tissue distribution studies of ^99mTc-N4-Tyrosine were conducted using normal female Fischer 344 rats (150 ± 25 g, n = 9). The rats were divided into 3 groups, and each rat was injected intravenously with 25 ± 0.5 μCi of ^99mTc-N4-Tyrosine. Each group was examined at 1 of 3 time points (0.5, 2, or 4 hours after injection). At each time point, the rats were killed, and the selected tissues were excised, weighed, and measured for radioactivity by gamma counter. For each sample, radioactivity was expressed as mean percentage of the injected dose per gram of tissue wet weight (%ID/g). Counts from a 1/10 diluted sample of the original injection were used as a reference."}},
  "data": [
    {"substance": "^99mTc-O-[3-(1,4,8,11-tetraazabicyclohexadecane)-propyl]-tyrosine [^99mTc-N4-Tyrosine]", "values": [
      {"measurement": "log P", "setting": "[1]", "value": "−2.83 ± 0.082"},
      {"measurement": "mean %Uptake compared with ^18F-FDG", "setting": "[2]; 8 μCi/well", "value": "much higher than that of ^18F-FDG"},
      {"measurement": "cellular uptake kinetics (%Uptake)", "setting": "[2]; incubation 15-240 minutes", "value": "increased dramatically up to 240 minutes"},
      {"measurement": "plasma half-life of the distribution phase (t1/2α)", "setting": "[3]", "value": "9.31 ± 0.759", "unit": "min"},
      {"measurement": "plasma half-life of the elimination phase (t1/2β)", "setting": "[3]", "value": "90.14 ± 1.901", "unit": "min"},
      {"measurement": "tissue distribution, Blood", "setting": "[4]; 30 min after injection", "value": 0.88, "unit": "%ID/g"},
      {"measurement": "tissue distribution, Bone and joint", "setting": "[4]; 30 min after injection", "value": 0.24, "unit": "%ID/g"},
      {"measurement": "tissue distribution, Brain", "setting": "[4]; 30 min after injection", "value": 0.03, "unit": "%ID/g"},
      {"measurement": "tissue distribution, Heart", "setting": "[4]; 30 min after injection", "value": 0.21, "unit": "%ID/g"},
      {"measurement": "tissue distribution, Intestine", "setting": "[4]; 30 min after injection", "value": 0.34, "unit": "%ID/g"},
      {"measurement": "tissue distribution, Kidney", "setting": "[4]; 30 min after injection", "value": 11.05, "unit": "%ID/g"},
      {"measurement": "tissue distribution, Liver", "setting": "[4]; 30 min after injection", "value": 1.15, "unit": "%ID/g"},
      {"measurement": "tissue distribution, Lung", "setting": "[4]; 30 min after injection", "value": 0.50, "unit": "%ID/g"},
      {"measurement": "tissue distribution, Muscle", "setting": "[4]; 30 min after injection", "value": 0.07, "unit": "%ID/g"},
      {"measurement": "tissue distribution, Pancreas", "setting": "[4]; 30 min after injection", "value": 0.17, "unit": "%ID/g"},
      {"measurement": "tissue distribution, Spleen", "setting": "[4]; 30 min after injection", "value": 0.94, "unit": "%ID/g"},
      {"measurement": "tissue distribution, Stomach", "setting": "[4]; 30 min after injection", "value": 0.20, "unit": "%ID/g"},
      {"measurement": "tissue distribution, Thyroid", "setting": "[4]; 30 min after injection", "value": 0.34, "unit": "%ID/g"},
      {"measurement": "tissue distribution, Blood", "setting": "[4]; 120 min after injection", "value": 0.20, "unit": "%ID/g"},
      {"measurement": "tissue distribution, Bone and joint", "setting": "[4]; 120 min after injection", "value": 0.15, "unit": "%ID/g"},
      {"measurement": "tissue distribution, Brain", "setting": "[4]; 120 min after injection", "value": 0.02, "unit": "%ID/g"},
      {"measurement": "tissue distribution, Heart", "setting": "[4]; 120 min after injection", "value": 0.06, "unit": "%ID/g"},
      {"measurement": "tissue distribution, Intestine", "setting": "[4]; 120 min after injection", "value": 0.13, "unit": "%ID/g"},
      {"measurement": "tissue distribution, Kidney", "setting": "[4]; 120 min after injection", "value": 12.34, "unit": "%ID/g"},
      {"measurement": "tissue distribution, Liver", "setting": "[4]; 120 min after injection", "value": 0.70, "unit": "%ID/g"},
      {"measurement": "tissue distribution, Lung", "setting": "[4]; 120 min after injection", "value": 0.19, "unit": "%ID/g"},
      {"measurement": "tissue distribution, Muscle", "setting": "[4]; 120 min after injection", "value": 0.03, "unit": "%ID/g"},
      {"measurement": "tissue distribution, Pancreas", "setting": "[4]; 120 min after injection", "value": 0.07, "unit": "%ID/g"},
      {"measurement": "tissue distribution, Spleen", "setting": "[4]; 120 min after injection", "value": 0.76, "unit": "%ID/g"},
      {"measurement": "tissue distribution, Stomach", "setting": "[4]; 120 min after injection", "value": 0.08, "unit": "%ID/g"},
      {"measurement": "tissue distribution, Thyroid", "setting": "[4]; 120 min after injection", "value": 0.10, "unit": "%ID/g"},
      {"measurement": "tissue distribution, Blood", "setting": "[4]; 240 min after injection", "value": 0.17, "unit": "%ID/g"},
      {"measurement": "tissue distribution, Bone and joint", "setting": "[4]; 240 min after injection", "value": 0.12, "unit": "%ID/g"},
      {"measurement": "tissue distribution, Brain", "setting": "[4]; 240 min after injection", "value": 0.01, "unit": "%ID/g"},
      {"measurement": "tissue distribution, Heart", "setting": "[4]; 240 min after injection", "value": 0.05, "unit": "%ID/g"},
      {"measurement": "tissue distribution, Intestine", "setting": "[4]; 240 min after injection", "value": 0.11, "unit": "%ID/g"},
      {"measurement": "tissue distribution, Kidney", "setting": "[4]; 240 min after injection", "value": 12.40, "unit": "%ID/g"},
      {"measurement": "tissue distribution, Liver", "setting": "[4]; 240 min after injection", "value": 0.67, "unit": "%ID/g"},
      {"measurement": "tissue distribution, Lung", "setting": "[4]; 240 min after injection", "value": 0.14, "unit": "%ID/g"},
      {"measurement": "tissue distribution, Muscle", "setting": "[4]; 240 min after injection", "value": 0.02, "unit": "%ID/g"},
      {"measurement": "tissue distribution, Pancreas", "setting": "[4]; 240 min after injection", "value": 0.05, "unit": "%ID/g"},
      {"measurement": "tissue distribution, Spleen", "setting": "[4]; 240 min after injection", "value": 0.63, "unit": "%ID/g"},
      {"measurement": "tissue distribution, Stomach", "setting": "[4]; 240 min after injection", "value": 0.06, "unit": "%ID/g"},
      {"measurement": "tissue distribution, Thyroid", "setting": "[4]; 240 min after injection", "value": 0.09, "unit": "%ID/g"},
      {"measurement": "stability in vivo", "setting": "[4]; inferred from low thyroid and stomach uptake", "value": "high stability in vivo"}
    ]}
  ]
}
